Measurements: US20110318431A1, “Pharmaceutical Compositions and Methods of Treating Neurological Insults” (ENDOGENX, priority 2008, published 2011)
“Also recorded” adds a separate entry of the source. Like-named read-outs stand apart in the source and are kept apart here.

How the values were obtained:
[1] = Evaluation of therapy for side effects of magnesium sulfate with and without mannitol treatment
Experimental: Safety—safety of subjects was maintained at all times. Adverse events and clinical laboratory data were obtained. Serious and non-serious adverse effects and clinical laboratory data were compared between groups.
Group 1. Magnesium sulfate 16 gm a day (4 vials each of 1 gm of magnesium sulfate mixed with 100 ml normal saline was infused 6 hourly for five days)
Group 3. Magnesium sulfate 8 gm a day plus mannitol (2 vials each of 1 gm of magnesium sulfate mixed with 50 ml normal saline was infused 6 hourly for five days; in addition 100 ml of 20% mannitol once a day with first dose of magnesium sulfate was administered)
Evaluation of therapy for side effects of magnesium sulfate with and without mannitol treatment

[2] = Clinical study in patients with infarct: Glasgow outcome scale, Barthel Index, Modified Rankin Score; assay type: in vivo, human
[3] = 16 mmol bolus and 65 mmol continuous infusion over 24 hrs; cited from earlier work
[4] = cited from earlier work
[5] = pediatric TBI patients; 50 mg/kg IV then 8.3 mg/kg/hour for 24 hours; cited from earlier work
[6] = at the end of three months; 4 g IV and 10 g IM within 12 hours of injury, then 5 g IM every 4 hours for 24 hours; cited from earlier work
[7] = end of 24 hour infusion, cited from earlier work
[8] = cited from earlier work; remark: listed apart in the source
[9] = 283 patients with aneurysmal subarachnoid hemorrhage; cited from earlier work
[10] = after one month of follow up; loading dose 16 mM then 6 mM/hour for 5 days IV; cited from earlier work
[11] = cited from earlier work; remark: listed apart in the source
[12] = cited from earlier work; remark: listed apart in the source
[13] = magnesium therapy; cited from earlier work
[14] = cited from earlier work; remark: listed apart in the source
[15] = cited from earlier work; remark: listed apart in the source
[16] = number out of total 15 patients, magnesium sulfate 16 gm a day, five days

SMILES: O=S(=O)([O-])[O-].[Mg+2] [magnesium sulfate]
- Incidence of side effects, magnesium sulfate (16 gm) alone compared to magnesium sulfate (8 gm) plus mannitol ([1]; five days treatment): greater; also recorded: higher
- Constipation [1, 16]: 4
- Facial flushing [1, 16]: 8
- Heart block [1, 16]: 3
- Hypotension [1, 16]: 3
- Nausea [1, 16]: 5
- Paradoxical bradycardia [1, 16]: 3
- Respiratory distress [1, 16]: 2
- Patient outcome, magnesium sulfate (16 gm) group compared to mannitol group ([2]; magnesium sulfate 16 gm a day for five days): improved
- Effectiveness of magnesium sulfate (16 gm) versus magnesium sulfate (8 gm) plus mannitol ([2]; patients with cerebrovascular accidents): equally effective
- Mortality versus placebo [3]: slightly higher
- Primary outcome [3]: not improved
- Patients with good functional outcome ([4]; at 3 months): 60%
- Patient status on hospital arrival rated improved ([4]; rated by paramedics, 10 mmol bolus and 64 mmol infusion over 24 hrs): 20%
- Patient status on hospital arrival rated unchanged ([4]; rated by paramedics): 75%
- Patient status on hospital arrival rated worsened ([4]; rated by paramedics): 5%

SMILES: [Mg] [magnesium]
- Adverse hemodynamic effects [5]: No adverse hemodynamic effects were observed
- Patients with favorable outcome including reduced mortality and intra-operative brain swelling [6]: 73%
- CSF ionized magnesium increase relative to baseline [7]: 11%
- CSF total magnesium increase relative to baseline [7]: 15%
- Serum magnesium concentrations relative to baseline ([7]; dose adjusted to serum 2.1-2.5 mM/L): doubled from baseline
- Target serum concentrations achieved ([8]; 16 mmol loading infusion): 1.49 mmol/L
- Effects on heart rate, blood pressure, or blood glucose ([8]; loading dose 8, 12 or 16 mM followed by 65 mM infusion over 24 hours): no obvious effects
- Delayed cerebral ischemia and subsequent poor outcome [9]: reduced
- Patient outcome, outcome scales (Orgogozo, Mathew, Rankin) [10]: significant positive effect
- Serum magnesium level ([11]; over 24 hours, 8 mmol over 15 minutes followed by 65 mmol over 24 hours IV, rose from 0.76 mM/L): 1.42 mM/L
- Blood pressure or adverse events versus placebo-treated patients ([11]; stroke patients): No differences
- Composite primary outcome at 6 months post-injury ([12]; administration within 8 hours of moderate to severe TBI for 5 days, continuous infusion): did not show any beneficial effects
- Mortality ([12]; high dose of magnesium): Significantly higher mortality
- Composite score versus placebo ([12]; lower dose of magnesium): worse than the placebo treated patients
- Outcome at six months [13]: failed to provide a favorable outcome

SMILES: OC[C@@H](O)[C@@H](O)[C@H](O)[C@H](O)CO [mannitol, D-mannitol]
- Effectiveness of mannitol compared to control ([2]; 100 ml 20% mannitol once a day for five days): not effective compared to control
- Glasgow outcome scale (GOS), Barthel Index (BI) and Modified Rankin Score (MRS), mannitol group versus control group ([2]; 100 ml 20% mannitol once a day for five days, day 1, day 5, day 15, day 30): similar
- Barthel Index (BI) and Modified Rankin Score (MRS), mannitol group compared to magnesium sulfate (8 gm) plus mannitol group ([2]; day 5, day 15, day 30): significantly higher
- Barthel Index (BI) and Modified Rankin Score (MRS), mannitol group compared to magnesium sulfate (16 gm) group ([2]; day 5, day 15, day 30): significantly higher
- Glasgow outcome scale (GOS), mannitol group compared to magnesium sulfate (8 gm) plus mannitol group ([2]; day 5, day 15, day 30): significantly lower
- Glasgow outcome scale (GOS), mannitol group compared to magnesium sulfate (16 gm) group ([2]; day 5, day 15, day 30): significantly lower
- Mortality with acute renal failure ([14]; massive mannitol infusion to 4 male adults): 2/4
- Onset of acute renal failure after infusion ([14]; massive mannitol infusion, Mean+SD): 48 ± 22 h
- Half life ([15]; humans with normal renal function): 1.2 h
- Osmolal gap corresponding to renal toxicity ([15]; humans): > 55 mosm/kg of water
- Serum mannitol concentration at which renal toxicity / acute renal failure occurs ([15]; humans): > 1000 mg/dL
- Half life ([15]; uremia patients): 36 h
